Data taken from publication PMC10569036.

How the values were obtained:
[1] = shake flask on a mixture of 185; loss from the water phase only; LC-Orbitrap peak areas; conditions: room
[2] = shake flask on a mixture of 185; loss from the water phase only; LC-QTOF peak areas; conditions: room

SMILES | log partition 1-octanol / HPLC water, unbuffered, traces of methanol / DMSO [1] [log10] | log partition butyl acetate / HPLC water, unbuffered, traces of methanol / DMSO [1] [log10] | log partition chloroform / HPLC water, unbuffered, traces of methanol / DMSO [1] [log10] | log partition cyclohexane / HPLC water, unbuffered, traces of methanol / DMSO [1] [log10] | log partition dichloromethane / HPLC water, unbuffered, traces of methanol / DMSO [1] [log10] | log partition n-hexane / HPLC water, unbuffered, traces of methanol / DMSO [1] [log10] | log partition n-octane / HPLC water, unbuffered, traces of methanol / DMSO [1] [log10] | log partition n-undecane / HPLC water, unbuffered, traces of methanol / DMSO [1] [log10] | log partition oleylalcohol / HPLC water, unbuffered, traces of methanol / DMSO [1] [log10] | log partition toluene / HPLC water, unbuffered, traces of methanol / DMSO [1] [log10] | log partition 1-octanol / HPLC water, unbuffered, traces of methanol / DMSO [2] [log10] | log partition butyl acetate / HPLC water, unbuffered, traces of methanol / DMSO [2] [log10] | log partition chloroform / HPLC water, unbuffered, traces of methanol / DMSO [2] [log10] | log partition cyclohexane / HPLC water, unbuffered, traces of methanol / DMSO [2] [log10] | log partition dichloromethane / HPLC water, unbuffered, traces of methanol / DMSO [2] [log10] | log partition n-hexane / HPLC water, unbuffered, traces of methanol / DMSO [2] [log10] | log partition n-octane / HPLC water, unbuffered, traces of methanol / DMSO [2] [log10] | log partition n-undecane / HPLC water, unbuffered, traces of methanol / DMSO [2] [log10] | log partition oleylalcohol / HPLC water, unbuffered, traces of methanol / DMSO [2] [log10] | log partition toluene / HPLC water, unbuffered, traces of methanol / DMSO [2] [log10]
CCC(C)(CC)c1cc(NC(=O)c2c(OC)cccc2OC)on1 | 2.911 | 2.863 | 1.794 | 1.372 | 2.835 | 0.9138 | 0.8981 | 0.6241 | 2.582 | 2.848 | 1.786 | 2.159 | 2.432 | 1.696 | 1.861 | 0.9529 | 1.176 | 1.012 | 2.115 | 2.04
CN/C(=N/[N+](=O)[O-])NCC1CCOC1 (stereo not shown) | 0.006708 | 0.08365 | 0.01252 | -0.8947 | 0.2723 | -0.6643 | -1.349 | -1.639 | -0.3931 | -0.3042 | -0.7277 | -1.391 | -0.45 | -1.158 | -0.07832 | -1.181 | -1.698 | -1.902 | -1.007 | -1.236
CO/N=C(/C1=NOCCO1)c1ccccc1Oc1ncnc(Oc2ccccc2Cl)c1F | 3.061 | 2.459 | 1.134 | 1.413 | 1.68 | 1.053 | 1.336 | 1.233 | 1.908 | 1.832 | 2.317 | 2.442 | 2.253 | 1.674 | 2.488 | 1.734 | 1.431 | 1.557 | 2.253 | 2.389
CCNC(=O)C1CC(C)CCC1C(C)C (stereo not shown) | 0.07926 | -0.1005 | 0.05708 | – | -0.08543 | – | – | – | -0.02549 | -0.1964 | 1.736 | 1.72 | 1.704 | – | 1.778 | – | – | – | 1.811 | 1.717
c1coc(-c2nc3ccccc3[nH]2)c1 | 1.137 | 1.189 | 0.9478 | -0.1735 | 1.025 | -0.2475 | -0.314 | -0.8377 | 1.389 | 0.5283 | 1.514 | 1.818 | 1.228 | -0.8199 | 1.187 | -1.048 | -0.9024 | -1.111 | 1.545 | 0.6693
Cc1oncc1C(=O)Nc1ccc(C(F)(F)F)cc1 | 1.455 | 1.635 | 1.002 | 0.009613 | 1.347 | -0.1226 | -0.1369 | -0.387 | 1.068 | 0.7892 | 2.576 | 3.034 | 2.805 | 0.2033 | 2.511 | 0.07872 | 0.112 | 0.08618 | 2.816 | 2.381
